According to patent publication US7985761B2, “Diphenylurea derivatives and their use as chloride channel blockers or BKCa channel modulators” (Neurosearch A/S, priority 2006, dated 2011):

Key:
Type in all cases: cell-based
[1] = biological target: T1, Volume Regulated Anion Channel (VRAC) (Homo sapiens, UniProt Q8IWT6); test: Volume Regulated Anion Channel (VRAC) effect, whole cell patch clamp in HEK293 cells; conditions: VRAC activated by swelling in hypotonic (75% tonicity) extracellular solution, read-out: KD value (time dependent block of VRAC current)
T1 construct: endogenous in cells; host or cells: HEK293
T1 sequence (Q8IWT6 1-810): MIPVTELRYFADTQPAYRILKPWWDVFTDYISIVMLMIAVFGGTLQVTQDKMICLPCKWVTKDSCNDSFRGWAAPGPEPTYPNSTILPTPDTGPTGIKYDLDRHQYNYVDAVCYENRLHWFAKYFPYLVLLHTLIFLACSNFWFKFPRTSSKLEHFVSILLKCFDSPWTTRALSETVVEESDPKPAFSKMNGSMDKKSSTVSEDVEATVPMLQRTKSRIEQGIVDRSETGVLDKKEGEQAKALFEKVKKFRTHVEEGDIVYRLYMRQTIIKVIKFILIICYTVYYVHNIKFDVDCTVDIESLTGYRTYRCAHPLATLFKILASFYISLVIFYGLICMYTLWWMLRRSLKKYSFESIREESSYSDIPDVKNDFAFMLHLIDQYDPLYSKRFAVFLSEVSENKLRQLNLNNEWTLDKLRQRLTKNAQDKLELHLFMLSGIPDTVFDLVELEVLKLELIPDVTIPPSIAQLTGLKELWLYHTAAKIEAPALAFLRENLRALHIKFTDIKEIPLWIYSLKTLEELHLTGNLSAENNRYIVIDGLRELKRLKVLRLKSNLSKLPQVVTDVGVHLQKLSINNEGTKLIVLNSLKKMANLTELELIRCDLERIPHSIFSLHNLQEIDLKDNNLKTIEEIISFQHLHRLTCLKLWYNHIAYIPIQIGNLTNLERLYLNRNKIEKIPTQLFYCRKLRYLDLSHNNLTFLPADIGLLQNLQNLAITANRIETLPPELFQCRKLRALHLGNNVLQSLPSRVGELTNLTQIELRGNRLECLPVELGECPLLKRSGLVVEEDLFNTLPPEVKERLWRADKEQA
Experimental: Volume Regulated Anion Channel (VRAC) Effect
The activity on the Volume Regulated Anion Channel (VRAC) was tested by the whole cell patch clamp technique using Human Embryonic Kidney cells (HEK293) as described in Helix et al, J Membr Biol. 2003 196(2):83-94, In short, VRAC was activated by swelling of the cell in hypotonic (75% tonicity) extracellular salt solution and the anion current elicited by voltage ramps was measured vs. time. After stabilization of the current the compound to be tested was added to the extracellular solution and the time dependent block was followed for calculation of the KD value.

[2] = tested on: human erythrocyte chloride channels; test: In vitro human erythrocyte chloride conductance; conditions: read-out: IC50 value - the concentration at which 50% of the chloride channels are blocked
Experimental: In Vitro Human Erythrocyte Chloride Conductance
The chloride conductance was measured according to the proceeding as described in the “Biology” paragraph of the specification of WO 00/24707. The parameter calculated from these studies is the IC50 value—the concentration at which 50% of the chloride channels are blocked.

human BK channels = biological target: T2, human BK channels (Homo sapiens, UniProt Q12791); test: Human BK channel screening, two-electrode voltage clamp in Xenopus oocytes; conditions: 0.3 μM test compound, Xenopus oocytes expressing human BK channels
T2 construct: expressed in transfected cells; host or cells: Xenopus oocytes
Experimental: Human BK Channel Screening
The influence of a compound on the membrane currents was determined electrophysiologically on Xenopus Oocytes capable of expressing human BK channels, and the current through the channels was recorded using the classical two-electrode voltage clamp technique.
The first compound of Example 4, N-(3,5-Difluoro-phenyl)-N′-[3-(5-oxo-4,5-dihydro-[1,2,4]oxadiazol-3-yl)-4′-trifluoromethyl-biphenyl-4-yl]urea, was subjected to this determination at a concentrations of 0.3 μM of test compound, and it caused an increase of BK current relative to the basal current of more than 200%.

T2 sequence (Q12791 whole entry): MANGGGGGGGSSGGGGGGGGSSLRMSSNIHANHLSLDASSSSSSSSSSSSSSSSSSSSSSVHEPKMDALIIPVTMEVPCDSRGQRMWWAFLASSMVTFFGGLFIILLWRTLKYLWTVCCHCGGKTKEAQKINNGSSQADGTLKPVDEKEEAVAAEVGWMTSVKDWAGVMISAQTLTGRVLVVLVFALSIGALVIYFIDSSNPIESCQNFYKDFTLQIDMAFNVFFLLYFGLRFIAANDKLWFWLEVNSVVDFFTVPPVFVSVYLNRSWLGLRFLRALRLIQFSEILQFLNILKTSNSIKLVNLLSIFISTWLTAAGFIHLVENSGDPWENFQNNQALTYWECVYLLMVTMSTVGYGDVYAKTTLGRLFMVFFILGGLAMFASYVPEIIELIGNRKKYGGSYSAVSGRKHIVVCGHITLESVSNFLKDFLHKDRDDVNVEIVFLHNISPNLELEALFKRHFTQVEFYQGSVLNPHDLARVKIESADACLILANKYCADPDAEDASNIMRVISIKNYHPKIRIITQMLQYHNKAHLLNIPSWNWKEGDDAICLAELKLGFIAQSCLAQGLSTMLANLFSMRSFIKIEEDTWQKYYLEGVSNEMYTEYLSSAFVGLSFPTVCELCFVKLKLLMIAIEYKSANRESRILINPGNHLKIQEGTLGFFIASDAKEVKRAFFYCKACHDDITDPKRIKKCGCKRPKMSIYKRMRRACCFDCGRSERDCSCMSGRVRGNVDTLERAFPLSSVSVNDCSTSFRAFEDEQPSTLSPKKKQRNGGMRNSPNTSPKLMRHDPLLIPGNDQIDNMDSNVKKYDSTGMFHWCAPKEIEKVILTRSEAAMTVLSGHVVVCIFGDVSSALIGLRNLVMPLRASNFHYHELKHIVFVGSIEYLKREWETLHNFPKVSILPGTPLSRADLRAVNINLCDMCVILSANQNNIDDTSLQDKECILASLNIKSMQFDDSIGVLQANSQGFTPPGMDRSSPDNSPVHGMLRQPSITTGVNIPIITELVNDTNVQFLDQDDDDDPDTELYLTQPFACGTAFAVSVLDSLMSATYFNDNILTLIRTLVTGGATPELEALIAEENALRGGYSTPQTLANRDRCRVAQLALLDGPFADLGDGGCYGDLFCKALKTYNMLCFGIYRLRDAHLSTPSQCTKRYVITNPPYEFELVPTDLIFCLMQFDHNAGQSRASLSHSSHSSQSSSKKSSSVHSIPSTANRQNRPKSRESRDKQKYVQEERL

Q: Which results are given for O=C(Nc1cc(F)cc(F)c1)Nc1ccc(-c2ccc(C(F)(F)F)cc2)cc1-c1noc(=O)[nH]1 [first compound of Example 4, N-(3,5-Difluoro-phenyl)-N′-[3-(5-oxo-4,5-dihydro-[1,2,4]oxadiazol-3-yl)-4′-trifluoromethyl-biphenyl-4-yl]urea]?
A: Kd [1]: 230 nM; IC50 [2]: 280 nM; increase of BK current relative to the basal current (human BK channels): more than 200%
